Laboratory results: patent US20060222707A1 (priority 2005, published 2006)

Experiment: Small volume in vitro release test in 50 ml 0.1N HCl
Assay type: physicochemical
Details: 37° C., 150 rpm
Experimental: The formulations were tested for their small volume in vitro release characteristics in 50 ml 0.1N HCl at 37° C. and 150 rpm using the following procedure: III. Instrumentation (or Equivalent) a. Automated Dissolution System comprising: Hanson SR8 Plus Test Station Hanson Auto Plus Maximiser System Controller Hanson Auto Plus MultiFill Fraction Collector b. HPLC System comprising: pump—Merck Hitachi L-7100 autoinjector—Merck Hitachi L-7200 column oven—Merck Hitachi L-7300 detector—Merck Hitachi L-7400 interface and integration software—Merck Hitachi D-7000
0.1N HCl Preparation Dilute 8.5 ml HCl 37% to 1 liter with purified water. Procedure Place one weighed capsule in each vessel containing 0.1N HCl and immediately operate the apparatus for 30 min. Unless otherwise specified, 3 ml samples are withdrawn from each vessel and immediately filtered through PTFE membranes at 15 and 30 min.
The small volume was chosen as a model of the conditions in a fasted stomach.

CC(C)OC(=O)C(C)(C)Oc1ccc(C(=O)c2ccc(Cl)cc2)cc1 [Micronized Fenofibrate]
dissolution under small volume conditions (in words): no dissolution at all
